Test results from BigSolDB 2.1.

C=CC(=O)Nc1cc(F)c(Br)c(F)c1
Details | solubility (mole fraction)
in acetonitrile, 284.65 K | 0.006
in acetonitrile, 291.45 K | 0.0079
in acetonitrile, 294.75 K | 0.009
in acetonitrile, 298.25 K | 0.0104
in acetonitrile, 301.85 K | 0.0121
in acetonitrile, 305.35 K | 0.0139
in acetonitrile, 308.45 K | 0.0158
in acetonitrile, 312.75 K | 0.0186
in acetonitrile, 316.65 K | 0.0217
in acetonitrile, 320.05 K | 0.0248
in acetonitrile, 323.85 K | 0.0288
in acetonitrile, 327.65 K | 0.0332
in acetonitrile, 331.75 K | 0.0386
in acetonitrile, 334.15 K | 0.0423
in acetonitrile, 337.75 K | 0.0482
in acetonitrile, 340.45 K | 0.0533
in acetonitrile, 343.55 K | 0.0596
in acetonitrile, 346.35 K | 0.0662
in acetonitrile, 348.95 K | 0.0725
in benzene, 296.35 K | 0.0007
in benzene, 302.95 K | 0.0011
in benzene, 308.75 K | 0.0014
in benzene, 310.75 K | 0.0015
in benzene, 317.65 K | 0.0022
in benzene, 324.25 K | 0.003
in benzene, 332.05 K | 0.0044
in benzene, 335.95 K | 0.0054
in benzene, 340.85 K | 0.0067
in benzene, 347.05 K | 0.0094
in ethanol, 295.25 K | 0.0251
in ethanol, 297.65 K | 0.0264
in ethanol, 301.55 K | 0.0292
in ethanol, 309.25 K | 0.0351
in ethanol, 312.95 K | 0.0384
in ethanol, 318.55 K | 0.044
in ethanol, 326.45 K | 0.0534
in ethanol, 331.35 K | 0.0604
in ethanol, 334.85 K | 0.0659
in ethanol, 339.55 K | 0.074
in ethanol, 344.45 K | 0.0838
in ethanol, 347.55 K | 0.0905
in methanol, 294.25 K | 0.0142
in methanol, 298.65 K | 0.0163
in methanol, 303.16 K | 0.0189
in methanol, 308.45 K | 0.0221
in methanol, 312.35 K | 0.0249
in methanol, 318.15 K | 0.0298
in methanol, 321.05 K | 0.0325
in methanol, 324.65 K | 0.036
in methanol, 327.45 K | 0.0391
in methanol, 328.95 K | 0.041
in pyridine, 288.95 K | 0.139
in pyridine, 292.45 K | 0.145
in pyridine, 298.95 K | 0.157
in pyridine, 303.85 K | 0.166
in pyridine, 310.25 K | 0.178
in pyridine, 317.05 K | 0.193
in pyridine, 322.55 K | 0.205
in pyridine, 328.45 K | 0.219
in pyridine, 333.15 K | 0.23
in pyridine, 338.25 K | 0.243
in pyridine, 344.95 K | 0.262
in pyridine, 348.85 K | 0.273
in toluene, 286.65 K | 0.0006
in toluene, 291.95 K | 0.0008
in toluene, 292.05 K | 0.0008
in toluene, 295.95 K | 0.0009
in toluene, 301.75 K | 0.0011
in toluene, 301.85 K | 0.0012
in toluene, 307.95 K | 0.0015
in toluene, 312.05 K | 0.0019
in toluene, 316.05 K | 0.0022
in toluene, 319.25 K | 0.0026
in toluene, 323.75 K | 0.003
in toluene, 327.95 K | 0.0035
in toluene, 331.15 K | 0.0043
in toluene, 334.65 K | 0.0051
in toluene, 337.65 K | 0.0059
in toluene, 342.35 K | 0.0069
